Data reported in patent publication US12414960B2, “Analogues of oleuropein and oleacein and uses thereof” (Attica Sciences Ltd., priority 2020, dated 2025).

Experiments:
[1] = test system: LNCaP prostate cancer cells; conditions: literature; cited from earlier work
[2] = test system: MCF-10A non-tumorigenic mammary epithelial cells; assay: Cell Glo luminescence cell growth assay, MCF-10A normal cells; format: cell-based, human; conditions: 10 μM, forty-eight hours post-treatment
Excerpt: (§1) The CellTiter-Glo® Luminescent Cell Viability Assay (Promega Corporation; Madison, WI) is a homogeneous method of determining the number of viable cells in culture based on quantitation of the ATP present, an indicator of metabolically active cells. The homogeneous assay procedure involves adding the single reagent (CellTiter-Glo® Reagent) directly to cells cultured in serum-supplemented medium. The homogeneous “add-mix-measure” format results in cell lysis and generation of a luminescent signal proportional to the amount of ATP present. The amount of ATP is directly proportional to the number of cells present in culture.
(§2) Cancer cells (3,000 cells/well) were harvested in a 96-well plate. Then, the cancer cells were treated with GS compounds and incubated for 24 hours. The MT Cell Viability Substrate, NanoLuc® Enzyme and cell culture medium was equilibrated to 37° C. The 2× RealTime-Glo™ reagent was prepared by diluting the MT Cell Viability Substrate and NanoLuc® Enzyme in 37° C. cell culture medium to a 2× concentration for each reagent. […] The cells were kept for ˜20 minutes in the cell culture incubator and then luminescence was measured by using a plate-reading luminometer. […]
The effects of exemplary compounds on cancer cell lines and one non-tumorigenic cell line (control) were investigated using a high throughput screening assay. More specifically, the effects of the GS compounds on cell growth was evaluated by the XTT assay for cell lines HepG2, HeLa, MCF7 ER+, MDA-MB-231, and MKN-45, and by the Cell Glo luminescence assay for cell lines MIA PaCa-2, HCT-116, MCF-10A, and PANC-1. […]
The effect of GS27 on normal cell growth was evaluated using the MCF-10A cell line. […]
GS27, NDI-091143 and Nexletol (10 μM) were used to treat normal epithelial cells MCF-10A cells. […] Forty-eight hours post-treatment, the growth of MCF-10A cells was evaluated by CellTiter-Glo® Luminescent Cell Viability Assay, as discussed in Example 29.

pAKT (S473) = assay: ELISA of pAKT (S473) in PANC-1 cells; format: cell-based, human; conditions: rIGF1, 5 μM, 24 hours
Procedure: ELISA assay was used to evaluate the effect of GS compounds on protein activity levels in PANC-1 cancer cells. PANC-1 cells were serum-starved overnight and then treated with rIGF1 (100 ng/mL) for 24 hours, with or without GS27 (5 μM). The levels of the following proteins were evaluated by ELISA assay: a) p70 S6 (T389) (cat no. 54164C, Cell Signaling); b) pAKT (S473), (cat no. 80895, Cell Signaling); c) pACLY (S455), (cat no. okag1672, Avivasysbio); d) pAMPK (T172) (cat no. 7959C, Cell Signaling) and e) p65/NFKB (S536), (cat no. 7173, Cell Signaling).
PANC-1 is a human pancreatic ductal adenocarcinoma cell line derived from the carcinoma of a person.
The molecular mechanism of action of GS27, a compound that has exerted potent anti-cancer activity in different cancer cell lines including pancreatic cancer cells, was investigated. Oleacein has been implicated to have anti-inflammatory and metabolic effects, thus the potential effects of GS27 in different metabolic and inflammatory pathways were evaluated. Specifically, the protein levels of p70 S6 (T389), pAKT (S473), pACLY (S455), pAMPK (T172) and p65/NFKB (S536) were evaluated by ELISA assay in PANC-1 pancreatic cancer cells treated with 5 μM GS27. GS27 reduced p70 S6 and AKT phosphorylation levels, while it increased AMPK phosphorylation.

PANC-1 cancer cells = assay: Cell Titer-Glo cell viability assay, PANC-1; format: cell-based, human; conditions: 5 μM, 24 hours; compared with SB204990 and BMS303141
Excerpt: as §1, §2

[3] = test system: AsPC-1 pancreatic cancer tumor; assay: AsPC-1 xenograft mouse model; format: in vivo, NOD/SCID mice; conditions: 100 mg/kg i.p. daily for 5 days
Procedure: The effect of GS27 on pancreatic cancer tumor growth in mice was evaluated in a AsPC-1 xenograft mouse model.
Xenograft tumors were generated by injecting AsPC-1 pancreatic cancer cells (0.5×10^6) into the right flank of male NOD/SCID mice (n=5/group). All mice developed tumors in 10 days with size of approximately 100 mm3. For each experiment, mice were randomly distributed into equal groups (5 mice per group) that were untreated or treated by intraperitoneal injections daily for 5 days with 100 mg/kg GS27. Tumor volume (average, SD) and the weight of the animals were evaluated until 24 days post-treatment.

SMILES	concentration found to reduce LNCaP prostate cancer cell growth [1]	effect on MCF-10A normal cell growth [2]	AKT phosphorylation levels (pAKT (S473))	suppression of PANC-1 cancer cell growth (PANC-1 cancer cells)	weight of the mice [3]	inhibition of AsPC-1 pancreatic cancer tumor growth ([3]; until 24 days post-treatment)
C/C=C(/C=O)[C@@H](CC=O)CC(=O)OCCc1ccc(O)cc1 [GS19, (3S,4E)-4-formyl-3-(2-oxoethyl)-4-hexenoic acid 2-(4-hydroxyphenyl)ethyl ester, reference compound]	500 µM					
C/C=C(/C=O)[C@@H](CC=O)CC(=O)SCCc1ccccc1 [GS27, S-phenethyl (3S,4E)-4-formyl-3-(2-oxoethyl)hex-4-enethioate]		did not have any effect	reduced	best effect	did not affect	34%
